This assay relates to Jurkat cells. The assay can be described thus: Confocal microscopy of stained Jurkat cells with and without CPT treatment. Type of assay: cell-based. An excerpt: FIGS. 5A-5D are confocal microscopy images of F1-EA staining Jurkat cell samples without the washing step. FIGS. 5A and 5C display the FITC channel; FIGS. 5B and 5D display the phase contrast channel.
FIGS. 6A-6D are micrographs depicting representative confocal images.
FIGS. 8A-8D are a series of micrographs depicting confocal microscopy images of Rhodamine B and Rd-EA staining Jurkat cell samples. FIGS. 8A and 8B show Rhodamine B stained cells while FIGS. 8C and 8D show Rd-EA stained cells. FIGS. 8A and 8C are CPT treated cells while
The specificity of F1-EA for apoptotic cells were further validated through a costaining experiment with the R-phycoerythrin labeled annexin V (AV-PE, yellow emission). […] The flow cytometry result was further validated with confocal microscopy analysis.

With `CCN(CC)c1ccc2c(-c3ccccc3C(=O)O)c3ccc(=[N+](CC)CC)cc-3oc2c1.[Cl-]` [Rhodamine B], the “selectivity of staining for apoptotic cells” value (confocal images, CPT-treated vs untreated Jurkat cells) is reported as “no selectivity”.

B1: AV-PE: R-phycoerythrin labeled annexin V (protein, UniProt P08758 2-320, looked up)
Annexin A5: AQVLRGTVTDFPGFDERADAETLRKAMKGLGTDEESILTLLTSRSNAQRQEISAAFKTLFGRDLLDDLKSELTGKFEKLIVALMKPSRLYDAYELKHALKGAGTNEKVLTEIIASRTPEELRAIKQVYEEEYGSSLEDDVVGDTSGYYQRMLVVLLQANRDPDAGIDEAQVEQDAQALFQAGELKWGTDEEKFITIFGTRSVSHLRKVFDKYMTISGFQIEETIDRETSGNLEQLLLAVVKSIRSIPAYLAETLYYAMKGAGTDDHTLIRVMVSRSEIDLFNIRKEFRKNFATSLYSMIKGDTSGDYKKALLLLCGEDD
modifications: R-phycoerythrin label
notes: R-phycoerythrin labeled annexin V
Regarding B1, the “location of the stain in CPT-treated cells” value (confocal image, CPT-treated Jurkat cells) was “membrane location”.

Values taken from patent publication US9119874B2, “Cell-penetrating markers of apoptosis” (TRUSTEES OF BOSTON COLLEGE, priority 2012, dated 2015).
